# From ChEMBL document CHEMBL1141566, “Synthesis and antitumor evaluation of bis aza-anthracene-9,10-diones and bis aza-anthrapyrazole-6-ones” (2008)
# How the values were obtained:
# Assay type in all cases: functional
# [1] = test system: HT-29; test: Effect on apoptotic BIRC8 gene expression in human HT29 cells after 6 hrs
# [2] = test system: HT-29; test: Effect on apoptotic IGF1R gene expression in human HT29 cells after 12 hrs
# [3] = test system: HT-29; test: Effect on apoptotic BAG4 gene expression in human HT29 cells after 12 hrs
# [4] = test system: HT-29; test: Effect on proapoptotic BAK1 gene expression in human HT29 cells after 6 hrs
# [5] = test system: HT-29; test: Effect on apoptotic CFLAR gene expression in human HT29 cells after 12 hrs
# [6] = test system: HT-29; test: Effect on apoptotic IGF1R gene expression in human HT29 cells after 6 hrs
# [7] = test system: HT-29; test: Effect on proapoptotic TNFRSF10B gene expression in human HT29 cells after 12 hrs
# [8] = test system: HT-29; test: Effect on apoptotic BIRC6 gene expression in human HT29 cells after 6 hrs
# [9] = test system: HT-29; test: Effect on apoptotic BAG4 gene expression in human HT29 cells after 6 hrs
# [10] = test system: HT-29; test: Effect on apoptotic BRAF gene expression in human HT29 cells after 12 hrs
# [11] = test system: HT-29; test: Effect on proapoptotic NOD1 gene expression in human HT29 cells after 6 hrs
# [12] = test system: HT-29; test: Effect on proapoptotic BNIP3L gene expression in human HT29 cells after 12 hrs
# [13] = test system: HT-29; test: Effect on proapoptotic BCL2L11 gene expression in human HT29 cells after 6 hrs
# [14] = test system: HT-29; test: Effect on proapoptotic CIDEB gene expression in human HT29 cells after 6 hrs
# [15] = test system: HT-29; test: Effect on proapoptotic CASP7 gene expression in human HT29 cells after 6 hrs
# [16] = test system: HT-29; test: Effect on apoptosis in human HT29 PI-/AnnV- cells after 24 hrs by biparametric flow cytometric analysis; conditions: HT-29, 24 h, read-out: LC50 (the source's name)
# [17] = test system: HT-29; test: Effect on apoptosis in human HT29 PI+/AnnV- cells after 6 hrs by biparametric flow cytometric analysis; conditions: HT-29, 6 h, read-out: LC50 (the source's name)
# [18] = test system: HT-29; test: Effect on apoptotic MCL1 gene expression in human HT29 cells after 6 hrs
# [19] = test system: HT-29; test: Effect on apoptotic BAG1 gene expression in human HT29 cells after 6 hrs
# [20] = test system: HT-29; test: Effect on proapoptotic TNFRSF10A gene expression in human HT29 cells after 6 hrs
# [21] = test system: HT-29; test: Effect on proapoptotic CASP9 gene expression in human HT29 cells after 6 hrs
# [22] = test system: HT-29; test: Effect on apoptotic CFLAR gene expression in human HT29 cells after 6 hrs
# [23] = test system: HT-29; test: Effect on proapoptotic CARD6 gene expression in human HT29 cells after 6 hrs
# [24] = test system: HT-29; test: Effect on proapoptotic LTBR gene expression in human HT29 cells after 12 hrs
# [25] = test system: HT-29; test: Effect on apoptosis in human HT29 PI+/AnnV+ cells after 12 hrs by biparametric flow cytometric analysis; conditions: HT-29, 12 h, read-out: LC50 (the source's name)
# [26] = test system: HT-29; test: Effect on proapoptotic BCL2 gene expression in human HT29 cells after 6 hrs
# [27] = test system: HT-29; test: Effect on proapoptotic BAK1 gene expression in human HT29 cells after 12 hrs
# [28] = test system: HT-29; test: Effect on apoptotic BIRC8 gene expression in human HT29 cells after 12 hrs
# [29] = test system: HT-29; test: Effect on apoptotic BCL10 gene expression in human HT29 cells after 12 hrs
# [30] = test system: HT-29; test: Effect on apoptosis in human HT29 PI-/AnnV+ cells after 12 hrs by biparametric flow cytometric analysis; conditions: HT-29, 12 h, read-out: LC50 (the source's name)
# [31] = test system: HT-29; test: Effect on apoptosis in human HT29 PI-/AnnV+ cells after 6 hrs by biparametric flow cytometric analysis; conditions: HT-29, 6 h, read-out: LC50 (the source's name)
# [32] = test system: HT-29; test: Effect on proapoptotic CIDEB gene expression in human HT29 cells after 12 hrs
# [33] = test system: HT-29; test: Effect on apoptosis in human HT29 PI+/AnnV- cells after 24 hrs by biparametric flow cytometric analysis; conditions: HT-29, 24 h, read-out: LC50 (the source's name)
# [34] = test system: HT-29; test: Effect on apoptotic BIRC3 gene expression in human HT29 cells after 12 hrs
# [35] = test system: HT-29; test: Effect on apoptosis in human HT29 PI-/AnnV- cells after 6 hrs by biparametric flow cytometric analysis; conditions: HT-29, 6 h, read-out: LC50 (the source's name)
# [36] = test system: HT-29; test: Effect on apoptotic NOL3 gene expression in human HT29 cells after 12 hrs
# [37] = test system: HT-29; test: Effect on apoptosis in human HT29 PI+/AnnV- cells after 12 hrs by biparametric flow cytometric analysis; conditions: HT-29, 12 h, read-out: LC50 (the source's name)
# [38] = test system: HT-29; test: Effect on apoptosis in human HT29 PI-/AnnV+ cells after 24 hrs by biparametric flow cytometric analysis; conditions: HT-29, 24 h, read-out: LC50 (the source's name)
# [39] = test system: HT-29; test: Effect on proapoptotic BNIP1 gene expression in human HT29 cells after 6 hrs
# [40] = test system: HT-29; test: Effect on apoptotic GADD45A gene expression in human HT29 cells after 6 hrs
# [41] = test system: HT-29; test: Effect on proapoptotic CARD8 gene expression in human HT29 cells after 6 hrs
# [42] = test system: HT-29; test: Effect on apoptotic BCL2L10 gene expression in human HT29 cells after 6 hrs
# [43] = test system: HT-29; test: Cytotoxicity against human HT29 cells after 72 hrs; conditions: HT-29, 72 h
# [44] = test system: HT-29; test: Effect on proapoptotic BNIP3L gene expression in human HT29 cells after 6 hrs
# [45] = test system: HT-29; test: Effect on proapoptotic CARD6 gene expression in human HT29 cells after 12 hrs
# [46] = test system: HT-29; test: Effect on proapoptotic BCLAF1 gene expression in human HT29 cells after 12 hrs
# [47] = test system: HT-29; test: Effect on proapoptotic BAX gene expression in human HT29 cells after 12 hrs
# [48] = test system: HT-29; test: Effect on proapoptotic BFAR gene expression in human HT29 cells after 6 hrs
# [49] = test system: HT-29; test: Effect on proapoptotic BFAR gene expression in human HT29 cells after 12 hrs
# [50] = test system: HT-29; test: Effect on apoptosis in human HT29 PI+/AnnV+ cells after 24 hrs by biparametric flow cytometric analysis; conditions: HT-29, 24 h, read-out: LC50 (the source's name)
# [51] = test system: HT-29; test: Effect on apoptotic AKT1 gene expression in human HT29 cells after 12 hrs
# [52] = test system: HT-29; test: Effect on apoptotic BCL2L1 gene expression in human HT29 cells after 6 hrs
# [53] = test system: HT-29; test: Effect on apoptotic MCL1 gene expression in human HT29 cells after 12 hrs
# [54] = test system: HT-29; test: Effect on apoptosis in human HT29 PI-/AnnV- cells after 12 hrs by biparametric flow cytometric analysis; conditions: HT-29, 12 h, read-out: LC50 (the source's name)
# [55] = test system: HT-29; test: Effect on proapoptotic BAX gene expression in human HT29 cells after 6 hrs
# [56] = test system: HT-29; test: Effect on apoptosis in human HT29 PI+/AnnV+ cells after 6 hrs by biparametric flow cytometric analysis; conditions: HT-29, 6 h, read-out: LC50 (the source's name)
# [57] = test system: HT-29; test: Effect on apoptotic NOL3 gene expression in human HT29 cells after 6 hrs
# [58] = test system: HT-29; test: Effect on proapoptotic LTBR gene expression in human HT29 cells after 6 hrs
# [59] = test system: HT-29; test: Effect on proapoptotic TNFRSF10A gene expression in human HT29 cells after 12 hrs
smiles,measurement,setting,value
CN(C)CCn1nc2c3c(c(NCCCN(C)CCCNc4ccc5c6c(nn5CCN(C)C)-c5cnccc5C(=O)c46)ccc31)C(=O)c1ccncc1-2,Fold change,[1],-5.6
same,Fold change,[2],-4
same,Fold change,[3],-3.3
same,Fold change,[4],4.5
same,Fold change,[5],-3.3
same,Fold change,[6],-38.5
same,Fold change,[7],-4.3
same,Fold change,[8],-2.6
same,Fold change,[9],-7
same,Fold change,[10],-9.1
same,Fold change,[11],4.2
same,Fold change,[12],3.6
same,Fold change,[13],7.7
same,Fold change,[14],8.3
same,Fold change,[15],5.6
same,CC50,[16],8.3 µM
same,CC50,[17],3.4 µM
same,Fold change,[18],-5
same,Fold change,[19],-2.5
same,Fold change,[20],-2.5
same,Fold change,[21],2.2
same,Fold change,[22],-2.2
same,Fold change,[23],-2.7
same,Fold change,[24],-4.3
same,CC50,[25],3.4 µM
same,Fold change,[26],-2.8
same,Fold change,[27],4.1
same,Fold change,[28],-33.3
same,Fold change,[29],-2.2
same,CC50,[30],32.4 µM
same,CC50,[31],22.3 µM
same,Fold change,[32],2.4
same,CC50,[33],7.2 µM
same,Fold change,[34],-6.3
same,CC50,[35],72.5 µM
same,Fold change,[36],-3.8
same,CC50,[37],4.2 µM
same,CC50,[38],62.3 µM
same,Fold change,[39],3
same,Fold change,[40],8.8
same,Fold change,[41],4
same,Fold change,[42],2.2
same,GI50,[43],0.00036 µM
same,LC50 (concentration killing 50% of cells),[43],9.8 µM
same,TGI,[43],1.3 µM
same,Fold change,[44],7.4
same,Fold change,[45],-6.7
same,Fold change,[46],136
same,Fold change,[47],1.3
same,Fold change,[48],-7
same,Fold change,[49],-2.5
same,CC50,[50],22.2 µM
same,Fold change,[51],-6.3
same,Fold change,[52],1.2
same,Fold change,[53],-2.7
same,CC50,[54],60 µM
same,Fold change,[55],4.1
same,CC50,[56],1.8 µM
same,Fold change,[57],-2.5
same,Fold change,[58],-5.3
same,Fold change,[59],-5.9
